Source: US20060128792A1, “Deguelin as a chemopreventive agent for lung cancer” (priority 2002, published 2006)
Where “and” joins values, the source holds several entries; their conditions need not be identical. Identical values can stand only once.

How the values were obtained:
Chago = assay: MTT assay, growth inhibition by deguelin or deguelin derivatives; format: cell-based; details: 3 days
H1299 xenografts = assay: NSCLC xenograft tumor growth; format: in vivo, athymic nude mice; details: 4 mg/kg or 8 mg/kg, 5 consecutive days; measured for 15 days; vs control
Protocol: The antitumor effect of deguelin was tested using an iii vivo model. H1299 cells were injected into the dorsal flank of athymic nude mice. Once tumor volume reached 40-80 mm^3, treatment for 5 consecutive days with 4 or 8 mg/kg deguelin began. Tumors were measured every other day for 15 days. […] The results are expressed as the mean (±SD) tumor volume (calculated from at least 5 mice) relative to the initial volume.

Cal6 = assay: MTT assay, growth inhibition by deguelin or deguelin derivatives; format: cell-based; details: 3 days
1799 cells = assay: MTT assay, viability of 1799 cells (also after Ad5CMV-MyrAkt-HA infection); format: cell-based
Excerpt: Cells and Cell Cultures. […] Tumors developed 6 months later. […] (Klein-Szanto et al., 1992).

H661 = assay: MTT assay, growth inhibition by deguelin or deguelin derivatives; format: cell-based; details: 3 days
[1] = test system: chorioallantoic membrane (CAM) vessel formation; assay: CAM assay, anti-angiogenic activity; format: in vivo, chick embryos
Protocol: The anti-angiogenic activity of deguelin was assessed using a CAM assay. Chick embryos were incubation for 3 days after which, about 2 ml of egg albumin was removed from the embryo with a hypodermic needle to allow the CAM and yolk sac to drop away from the shell membrane. On day 3.5, the shell was punched out and removed and the shell membrane was peeled away. […] After the two day incubation period, 500 μl of 10% fat emulsion was injected into the chorioallantoic membrane and observed microscopically.
Retinoic acid, an anti-angiogenic compound, was used as a positive control for determining anti-angiogenic response. […] This independent experiment was repeated three times with more than 20 eggs.

[2] = test system: bax and bcl-2 in lung cancer cell lines; assay: Western blot of bax and bcl-2; format: cell-based; details: 10^−7 M deguelin
Protocol: Immunoblotting. Whole cell lysates were prepared in lysis buffer (50 mM N-[2-[…]]-piperazine-N′-[2-ethanesulfonic acid] [HEPES; pH 7.5], 150 mM NaCl, 1.5 mM MgCl2, ImM EDTA, 0.2 mM EGTA, 1% NP40, 10% glycerol, 1 mM dithiothreitol (DTT), 1 mM phenylmethylsulfonyl fluoride, 20 mM sodium fluoride, 5 mM sodium orthovanadate, 10 μg/ml aprotinin, 10 μg/ml leupeptin, 2 μg/ml pepstatin, and 1 mM benzamidine) as described previously (Lee et al., 2002). Equivalent protein concentrations were resolved in sodium dodecyl sulfate-polyacrylamide gels and transferred to a nitrocellulose membrane. After the blocking of transblotted membrane in Tris-buffered saline (TBS) containing 0.05% Tween 20 (TBST) and 5% low fat milk, themembrane was incubated with primary antibody at the appropriate dilution in TBS-5% low-fat milk at 4° C. for 16 h and washed with TBST. The immunoblots were visualized using the ECL kit (Amersham, Inc., Arlington Heights, III) according to the manufacturer's directions. […]
The apoptotic effect of deguelin was further assessed in HBE cells. […] Apoptosis was analyzed by flow cytometry as described above. […] To confirm the apoptotic activity in these cells, bax and bcl-2 expression were analyzed by western blotting. […] Thus, it was determined that deguelin increases bax expression thereby inducing the apoptotic activity in lung cancer cells.

COX-2 = assay: COX-1 and COX-2 expression by northern and western blotting; format: cell-based; details: premalignant cells (1799, squamous HBE); 1 nM, 10 nM or 100 nM
Protocol: COX-2 on the other hand, is found to be induced and expressed in neoplastic growth. […] Thus, it was determined whether deguelin regulates the expression of COX-2 in lung cancer cells. Normal, premalignant, and malignant lung cancer cells, NHBE, 1799, 1198, and 1170, were treated with 1 nM, 10 nM, or 100 nM deguelin for 1 day and COX-1 and COX-2 expression were analyzed by northern blotting.
In this study, the protein and mRNA expression of COX-1 and COX-2 were tested in 1799 and squamous (Sq) HBE cells. These cells were treated with 1 nM, 10 nM, or 100 nM deguelin and the COX-1 and COX-2 RNA and analyzed by northern blotting and western blotting. Equal amount of mRNA in each lane was confirmed by northern blot analysis using GAPDH (data not shown).

H460 = assay: MTT assay, growth inhibition by deguelin or deguelin derivatives; format: cell-based; details: H460, 3 days

SMILES: COc1cc2c(cc1OC)[C@@H]1C(=O)c3ccc4c(c3O[C@@H]1CO2)C=CC(C)(C)O4 [Deguelin]
- Avg. % con (Chago; deguelin 10^−6M): 0.56 % con
- MTT value, mean of replicates (unheaded line) (Chago; deguelin 10^−6M): 0.086
- MTT value, replicate (unheaded line) (Chago; deguelin 10^−6M): 0.094 and 0.086 and 0.078
- Avg. % con (Chago; deguelin 10^−8M): 0.65 % con
- MTT value, mean of replicates (unheaded line) (Chago; deguelin 10^−8M): 0.1
- MTT value, replicate (unheaded line) (Chago; deguelin 10^−8M): 0.101 and 0.093 and 0.106
- Avg. % con (Chago; deguelin 10^−10M): 1.24 % con
- MTT value, mean of replicates (unheaded line) (Chago; deguelin 10^−10M): 0.191
- MTT value, replicate (unheaded line) (Chago; deguelin 10^−10M): 0.192 and 0.184 and 0.197
- Avg. % con (Chago; deguelin 10^−12M): 1.18 % con
- MTT value, mean of replicates (unheaded line) (Chago; deguelin 10^−12M): 0.182
- MTT value, replicate (unheaded line) (Chago; deguelin 10^−12M): 0.175 and 0.179 and 0.192
- growth of NSCLC xenografts (tumor volume relative to initial volume) (H1299 xenografts): inhibited
- Avg. % con (Cal6; deguelin 10^−6M): 0.24 % con
- MTT value, mean of replicates (unheaded line) (Cal6; deguelin 10^−6M): 0.094
- MTT value, replicate (unheaded line) (Cal6; deguelin 10^−6M): 0.098 and 0.106 and 0.078
- Avg. % con (Cal6; deguelin 10^−8M): 0.88 % con
- MTT value, mean of replicates (unheaded line) (Cal6; deguelin 10^−8M): 0.345
- MTT value, replicate (unheaded line) (Cal6; deguelin 10^−8M): 0.356 and 0.338 and 0.341
- Avg. % con (Cal6; deguelin 10^−10M): 0.93 % con
- MTT value, mean of replicates (unheaded line) (Cal6; deguelin 10^−10M): 0.364
- MTT value, replicate (unheaded line) (Cal6; deguelin 10^−10M): 0.332 and 0.386 and 0.374
- Avg. % con (Cal6; deguelin 10^−12M): 0.92 % con
- MTT value, mean of replicates (unheaded line) (Cal6; deguelin 10^−12M): 0.360
- MTT value, replicate (unheaded line) (Cal6; deguelin 10^−12M): 0.357 and 0.358 and 0.366
- viable number of 1799 cells (1799 cells; 1 day, concentration as low as 10^−9 M): reduced
- viability at 0.1 µM (1799 cells; 48 h, 10^−7 M deguelin, 2 days, read-out: viable cells, 1799 cells infected with 5×10^3 particles/cell Ad5CMV-Myr.Akt.HA): > 80%
- Avg. % con (H661; deguelin 10^−6M): 0.5756 % con
- MTT value, mean of replicates (unheaded line) (H661; deguelin 10^−6M): 0.0597
- MTT value, replicate (unheaded line) (H661; deguelin 10^−6M): 0.059 and 0.055 and 0.065
- Avg. % con (H661; deguelin 10^−8M): 0.60 % con
- MTT value, mean of replicates (unheaded line) (H661; deguelin 10^−8M): 0.063
- MTT value, replicate (unheaded line) (H661; deguelin 10^−8M): 0.062 and 0.056 and 0.07
- Avg. % con (H661; deguelin 10^−10M): 0.80 % con
- MTT value, mean of replicates (unheaded line) (H661; deguelin 10^−10M): 0.083
- MTT value, replicate (unheaded line) (H661; deguelin 10^−10M): 0.087 and 0.093 and 0.07
- Avg. % con (H661; deguelin 10^−12M): 0.86 % con
- MTT value, mean of replicates (unheaded line) (H661; deguelin 10^−12M): 0.089
- MTT value, replicate (unheaded line) (H661; deguelin 10^−12M): 0.09 and 0.084 and 0.094
- anti-angiogenic activity (percentage of positive eggs) ([1]; 5 nmol/egg, 2 days): 59.2%
- egg lethality ([1]; CAM assay, without any signs of thrombosis and hemorrhage): negligible
- Bcl-2 expression [2]: not found to be regulated
- bax expression [2]: Increased
- induced COX-2 expression (COX-2): downregulated
- Avg. % con (H460; deguelin 10^−6M): 0.17 % con
- MTT value, mean of replicates (unheaded line) (H460; deguelin 10^−6M): 0.129
- MTT value, replicate (unheaded line) (H460; deguelin 10^−6M): 0.115 and 0.141 and 0.131
- Avg. % con (H460; deguelin 10^−8M): 0.86 % con
- MTT value, mean of replicates (unheaded line) (H460; deguelin 10^−8M): 0.635
- MTT value, replicate (unheaded line) (H460; deguelin 10^−8M): 0.632 and 0.652 and 0.62
- Avg. % con (H460; deguelin 10^−10M): 1.03 % con
- MTT value, mean of replicates (unheaded line) (H460; deguelin 10^−10M): 0.762
- MTT value, replicate (unheaded line) (H460; deguelin 10^−10M): 0.783 and 0.761 and 0.743
- Avg. % con (H460; deguelin 10^−12M): 1.06 % con
- MTT value, mean of replicates (unheaded line) (H460; deguelin 10^−12M): 0.788
- MTT value, replicate (unheaded line) (H460; deguelin 10^−12M): 0.797 and 0.75 and 0.816
